Test results as given in publication PMC4996684 (Bioorganic & medicinal chemistry letters, 2016).
Read-outs that look alike come from different tables or passages of the source.

Molecular target: T1, human M5 mAChR (Homo sapiens, UniProt P08912)
T1 sequence (P08912 1-532): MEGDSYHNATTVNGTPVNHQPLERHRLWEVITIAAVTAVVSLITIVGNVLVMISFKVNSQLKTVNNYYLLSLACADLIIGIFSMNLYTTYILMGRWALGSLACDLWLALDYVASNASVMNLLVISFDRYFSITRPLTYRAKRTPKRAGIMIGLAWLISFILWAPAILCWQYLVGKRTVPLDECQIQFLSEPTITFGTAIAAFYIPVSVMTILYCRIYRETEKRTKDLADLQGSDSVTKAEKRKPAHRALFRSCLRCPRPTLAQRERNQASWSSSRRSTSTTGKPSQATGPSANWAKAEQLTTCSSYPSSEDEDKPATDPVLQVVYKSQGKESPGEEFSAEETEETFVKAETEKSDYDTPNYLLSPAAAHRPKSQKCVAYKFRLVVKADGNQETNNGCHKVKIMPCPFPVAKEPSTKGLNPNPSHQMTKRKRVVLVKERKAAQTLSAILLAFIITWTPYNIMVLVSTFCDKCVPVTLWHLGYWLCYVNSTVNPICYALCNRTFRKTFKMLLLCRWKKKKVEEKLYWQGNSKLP
Assay: hM5 functional inhibition assay
Type: cell-based
Details: for hM5 Percent inhibition (Table 3): single point at 10 μM, EC80 of ACh, average of three determinations

Compound | inhibition at 10 µM (read-out: hM5 Percent inhibition (Table 2)) [%] | inhibition at 10 µM (read-out: hM5 Percent inhibition (Table 3)) [%] | inhibition at 10 µM (read-out: maximum M5 inhibition, single point M5 inhibition assay) [%] | activity in the 10 μM single point assay (resynthesized 4, 10 μM) [%] | hM5 Percent inhibition (Table 3)
Cc1nn(C)c(C)c1S(=O)(=O)N1CCC2(CC1)OCCS2 [Compound 4, 8-((1,3,5-trimethyl-1H-pyrazol-4-yl)sulfonyl)-1-oxa-4-thia-8-azaspiro[4,5]decane] | 84 | 88 | 50 | 88 | –
Cc1nn(C)cc1S(=O)(=O)N1CCC2(CC1)OCCS2 [Compound 9b] | – | – | – | – | Inactive
Cn1cnc(S(=O)(=O)N2CCC3(CC2)OCCS3)c1 [Compound 9h] | – | – | – | – | Inactive
